Consider 4 molecules from article PMC8480901 (PLoS ONE, 2021).

Assay [1] has as its system IL-8–activated human neutrophils. The experiment in a line: Chemotaxis of IL-8–activated human neutrophils (transwell, CellTiter Glo). It is filed as cell-based. To be noted: for Neutrophilic chemotaxis, RLU, Mean / Neutrophilic chemotaxis: % reduction / Neutrophilic chemotaxis, RLU, single replicates: IL-8; for Neutrophilic chemotaxis, RLU, single replicates: listed as Ref. An excerpt: Buffy coat (blood sample fraction comprising white blood cells and platelets) from whole blood was obtained from a healthy adult volunteer at the Croatian Institute of Transfusion Medicine (CITM; Zagreb, Croatia). The CITM ethics committee approved the blood collection process, and the volunteer provided written informed consent prior to blood collection. Neutrophils were isolated from the buffy coat, an aliquot of which was used for cell counting via hematologic analyzer (X500i; Sysmex). […] The diluted buffy coat was drawn into sterile 50-mL syringes and incubated for 30 minutes at RT. Following incubation, the upper layer of leukocyte-rich plasma (35 mL) was decanted into a new sterile 50-mL conical centrifuge tube, carefully layered onto 15 mL of Lymphoprep (Axis-Shield Diagnostics, Ltd., Dundee, UK) and centrifuged at 400×g (brake turned off) for 35 minutes at RT. The supernatant and mononuclear ring were discarded, and the pellet was resuspended in 10 mL of cold sterile MilliQ water. […] Resuspended neutrophils were counted via Sysmex X500i hematologic analyzer.
All test compounds were reconstituted in DMSO (Sigma-Aldrich Chemie GmbH) to 100-mM stock concentrations, taking into consideration and correcting for salt and purity. A 30-mM stock solution of reference compound Sch527123 (MedChemExpress, Monmouth Junction, NJ, USA) was diluted to 10 mM with DMSO.
DMSO was used as vehicle. […] The reference compound was tested at concentrations of 0.003, 0.01, 0.03, 0.1, 0.3, 1, 3, and 10 μM. All compounds were tested in triplicate, and the final DMSO concentration was 0.1% per well.
Test and reference compound working solutions were then added (20 μL/well) for a 10-fold dilution to final testing concentrations. Compounds and cells were mixed by gentle pipetting, and the plate was pre-incubated for 30 minutes at RT with gentle mixing by pipetting.
Negative control wells received 180 μL of migration medium alone. To all wells, 20 μL of compound working solutions or DMSO vehicle was added. Once pre-incubation of cells with compounds was complete, the transwell inserts were carefully placed on the receiver plate, with caution to avoid air bubble formation, which could prevent cell migration. To the upper wells, 75 μL of cell suspension (375,000 cells/well) was added, taking care not to tear the membrane with pipette tips.
After incubation, the number of cells that migrated to the lower wells was quantified by removing the Transwell insert and adding 200 μL of CellTiter Glo reagent (CellTiter-Glo Luminescent Cell Viability Assay, Promega, Madison, WI, USA) to each lower well to quantify the amount of adenosine triphosphate (ATP) present, signaling the presence of metabolically active cells. The plate was incubated for 10 minutes in the dark at RT, followed by transferring 150 μL of solution into wells of a white 96-well plate (Lumitrac 200; Greiner Bio-One International GmbH, Kremsmunster, Austria).
For the chemotaxis and cytotoxicity evaluations, average relative light unit values were calculated from all untreated vehicle samples and, for each sample, percentage of vehicle value was calculated. The tested compound was considered cytotoxic if reduction from untreated vehicle was ≥20%.
For orientation: In ATP-based viability assays light output follows the ATP content of the culture.

The test system of assay [2] is LPS-induced acute lung injury. To be noted: cited from earlier work.
The test system of assay [3] is methicillin-resistant Staphylococcus aureus wound infection. The arrangement: method as in PMID 32079232. Particulars: MRSA wound infection mouse model; cited from earlier work.
In assay [4] the test system is murine RAW 264.7 macrophages. To be noted: cited from earlier work.

Several values for one entry are separate records, joined by “and”; a condition that tells them apart may be missing. Equal values may be shown once.

For the molecule `CC[C@@H](Nc1c(Nc2cccc(C(=O)N(C)C)c2O)c(=O)c1=O)c1ccc(C)o1` [Sch527123], the “IL-8–induced chemotaxis of human neutrophils” value in assay [1] (0.003 to 10 μM) is “dose-dependent inhibition”. Besides, the “Neutrophilic chemotaxis, RLU, Mean” value in assay [1] (0.003 µM) is listed as 136013 RLU; in assay [1] (0.01 µM), 145907 RLU; in assay [1] (0.03 µM), 131720 RLU; in assay [1] (0.1 µM) it was 87493 RLU; in assay [1] (0.3 µM) it was 34307 RLU; in assay [1] (1 µM) it was 20080 RLU. Also, the “Neutrophilic chemotaxis, RLU, Mean” value in assay [1] (3 µM) is 18067 RLU; in assay [1] (10 µM), 19573 RLU. Further, the “Neutrophilic chemotaxis: % reduction” value is recorded as -2.55% in assay [1] (0.003 µM); -11% in assay [1] (0.01 µM); 1.09% in assay [1] (0.03 µM); 39% in assay [1] (0.1 µM); 84% in assay [1] (0.3 µM); 96% in assay [1] (1 µM). For the same molecule, the “Neutrophilic chemotaxis: % reduction” value in assay [1] (3 µM) stood at 97%; in assay [1] (10 µM) it was 96%. The “Neutrophilic chemotaxis, RLU, single replicates” value in assay [1] (0.003 µM) was 126680 RLU and 141280 RLU and 140080 RLU; in assay [1] (0.01 µM), 164560 RLU and 147560 RLU and 125600 RLU; in assay [1] (0.03 µM), 131800 RLU and 131640 RLU; in assay [1] (0.1 µM), 83280 RLU and 83800 RLU and 95400 RLU; in assay [1] (0.3 µM), 34560 RLU and 36480 RLU and 31880 RLU; in assay [1] (1 µM), 21040 RLU and 22120 RLU and 17080 RLU. The “Neutrophilic chemotaxis, RLU, single replicates” value in assay [1] (3 µM) was 19800 RLU and 19160 RLU and 15240 RLU; in assay [1] (10 µM), 21800 RLU and 20760 RLU and 16160 RLU.

Take `CC[C@H]1OC(=O)[C@H](C)[C@@H](O[C@H]2C[C@@](C)(OC)[C@@H](O)[C@H](C)O2)[C@H](C)[C@@H](O[C@@H]2O[C@H](C)C[C@H](N(C)C)[C@H]2O)[C@](C)(OC)C[C@@H](C)C(=O)[C@H](C)[C@@H](O)[C@]1(C)O` [clarithromycin]: in assay [2] (pretreatment in LPS-induced acute lung injury models), the neutrophil recruitment entry is “significantly reduced”.

For `C=C[C@]1(C)C[C@@H](OC(=O)CSc2ccccc2N)[C@]2(C)[C@H](C)CC[C@]3(CCC(=O)[C@H]32)[C@@H](C)[C@@H]1O` [amphenmulin, 22-(2-amino-phenylsulfanyl)-22-deoxypleuromutilin], the “TNF-α, IL-6, and CCL-2 serum levels” value in assay [3] was “significantly reduced”.

As for `C=C[C@]1(C)C[C@@H](OC(=O)CSC(C)(C)CNC(=O)[C@H](N)C(C)C)[C@]2(C)[C@H](C)CC[C@]3(CCC(=O)[C@H]32)[C@@H](C)[C@@H]1O` [valnemulin], the “LPS-induced pulmonary edema, accumulation of inflammatory cells in BALF, and increased inflammatory cytokines (eg, TNF-α and IL-6)” value in assay [2] (pretreated mice vs no-treatment control group) is “significantly attenuated”. In addition, in assay [4], the “LPS-induced production of inflammatory mediators, including nitric oxide, prostaglandin E2, TNF-α, and IL-6” value is “significantly inhibited”.
